Data: PubChem BioAssay AID2425 (Vanderbilt High Throughput Screening Facility, 2010)
Activity calls are given as the source filed them.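 The calls were made as follows: active = fitted dose-response curve with goodness of fit R² above 0.5; inactive = the rest.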

Molecular target: Muscarinic acetylcholine receptor M1 (Rattus norvegicus) (UniProt P08482)
Experiment: rat M1 positive allosteric modulator potency, dose response, cell-based, calcium mobilization, CHO-K1, ACh EC20 (AID 2425)
Details: CHO-K1 rat M1, Fluo-4 calcium, PAM with ACh EC20

Chain of Muscarinic acetylcholine receptor M1 (Rattus norvegicus) (P08482 whole entry, looked up): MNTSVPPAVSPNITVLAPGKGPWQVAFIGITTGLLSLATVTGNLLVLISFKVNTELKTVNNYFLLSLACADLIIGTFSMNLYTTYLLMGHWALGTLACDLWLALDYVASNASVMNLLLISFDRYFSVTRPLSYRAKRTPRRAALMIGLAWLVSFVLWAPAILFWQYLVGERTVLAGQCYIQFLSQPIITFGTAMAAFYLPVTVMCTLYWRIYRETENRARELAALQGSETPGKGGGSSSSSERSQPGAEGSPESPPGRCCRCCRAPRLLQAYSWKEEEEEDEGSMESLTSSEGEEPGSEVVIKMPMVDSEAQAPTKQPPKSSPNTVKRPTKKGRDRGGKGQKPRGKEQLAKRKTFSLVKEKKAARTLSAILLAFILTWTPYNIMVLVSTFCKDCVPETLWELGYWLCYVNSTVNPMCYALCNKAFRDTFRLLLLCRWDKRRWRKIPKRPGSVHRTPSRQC

SMILES	EC50	potentiation, % max ACh (at 30 µM (top of the series))
Cc1cc(NC(=O)CS(=O)(=O)c2cn(Cc3cccc(Cl)c3)c3ccccc23)no1	5.86 µM	–
O=C1C(=O)N(Cc2ccc(Oc3ccccc3)cc2)c2ccc(OC(F)(F)F)cc21	–	inactive
